# Source: US20250304620A1, “ANTIMICROBIAL PEPTIDE AND APPLICATION THEREOF” (priority 2023, published 2025)
# Marks after values point to notes of the source that are not given here. Non-standard residues stand in square brackets, D forms with d. Residues, ends and D or L forms follow the SMILES beside them. dPhe(4-F) = N[C@H](Cc1ccc(F)cc1)C(=O)O; d2Nal = N[C@H](Cc1ccc2ccccc2c1)C(=O)O
# Key:
# [1] = system: Staphylococcus aureus (NRS 384); assay: microbe, parasite or virus in culture; type: cell-based; conditions: NRS 384
# Outline: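 MICs were read against S. aureus strain NRS 384 using twofold serial dilution by CLSI microdilution rules. Levofloxacin and Cbf-K16 were the reference controls, and the test was repeated 5 times in parallel.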
# [2] = system: Bacillus subtilis ATCC 6633; type: cell-based
# Outline: (§1)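 CLSI microdilution, serial 2-fold dilutions; MIC read-out; n = 5 parallel repeats.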
# [3] = system: Candida albicans ATCC MYA-2876; type: cell-based
# Outline: as §1
# [4] = system: Candida glabrata ATCC 15126; type: cell-based
# Outline: as §1
# Candida krusei ATCC 6258 = type: cell-based
# Outline: as §1
# [5] = system: Candida tropicalis ATCC 750; type: cell-based
# Outline: as §1
# Candida utilis ATCC 9950 = type: cell-based
# Outline: as §1
# [6] = system: Corynebacterium ATCC 7715; type: cell-based
# Outline: as §1
# Enterococcus ATCC 29212 = type: cell-based
# Outline: as §1
# [7] = system: Escherichia coli ATCC 25922; type: cell-based
# Outline: as §1
# [8] = system: Klebsiella pneumoniae ATCC 700603; type: cell-based
# Outline: as §1
# [9] = system: Pseudomonas aeruginosa ATCC 27853; type: cell-based
# Outline: as §1
# [10] = system: Salmonella typhimurium ATCC 14028; type: cell-based
# Outline: as §1
# [11] = system: Serratia marcescens ATCC 29021; type: cell-based
# Outline: as §1
# [12] = system: Staphylococcus aureus ATCC 25923; type: cell-based
# Outline: as §1
# [13] = system: Trichophyton ATCC MYA-4438; type: cell-based
# Outline: as §1
# [14] = system: Shigella flexneri ATCC 12022; assay: MIC against clinically common bacterial strain; type: cell-based
# Outline: as §1
# [15] = system: Methicillin-resistant Staphylococcus aureus (MRSA); type: cell-based; conditions: Methicillin-resistant
# Outline: (§2)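 Read-out is the minimum inhibitory concentration, obtained by twofold serial dilution in microdilution format per CLSI guidance, with five parallel runs.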
# [16] = system: carbapenem-resistant Escherichia coli (CREC); type: cell-based; conditions: carbapenem-resistant (CREC)
# Outline: as §2
# [17] = system: carbapenem-resistant Klebsiella pneumoniae (CRKP); type: cell-based; conditions: carbapenem-resistant (CRKP)
# Outline: as §2
# [18] = system: carbapenem-resistant Pseudomonas aeruginosa (CRPA); type: cell-based; conditions: carbapenem-resistant (CRPA)
# Outline: as §2
# [19] = system: vancomycin-resistant Enterococcus (VRE); type: cell-based
# Outline: as §2
# [20] = system: Staphylococcus aureus (NRS 384); conditions: NRS 384, 3 h
# Description: Trypsin (250 U/mg, pH=8.0) and AMPs (LV-1 to LV-30) were mixed in a ratio of 1:10 (w/w) and added to a reaction buffer (0.2 M sodium phosphate, 1 mM CaCl2), pH 7.5), and then incubated at 37° C. for 3 h.
# [21] = system: Pseudomonas aeruginosa ATCC 27853; assay: Injectable formulations on mice infected with peritonitis; type: in vivo, ICR mice; conditions: 1 mg/kg via tail vein, twice a day for 3 days, n = 10; for Average survival times (Days): observed for 14 d
# Outline: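 Survival readout: deaths and survival time tracked for 14 d. Treatment was tail-vein injection by body weight, twice a day for 3 consecutive days, starting right after intraperitoneal challenge with 0.2 mL of 1×10^9 CFU/mL P. aeruginosa ATCC 27853 in male and female ICR mice.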
# [22] = Serum stability assay (residual level by RP-HPLC); conditions: human
compound,measurement,setting,value
CC(=O)N[C@H](CCCNC(=N)N)C(=O)N[C@H](CCCCN)C(=O)N[C@H](CC(C)C)C(=O)N[C@H](CC(C)C)C(=O)N[C@H](Cc1ccccc1)C(=O)N[C@H](CCCNC(=N)N)C(=O)N[C@H](CC(C)C)C(=O)N[C@H](CCCCN)C(=O)N[C@H](Cc1ccc2ccccc2c1)C(=O)N[C@H](CCCNC(=N)N)C(=O)N[C@H](CCCCN)C(N)=O [LV-3] (Ac-[dR][dK][dL][dL][dF][dR][dL][dK][d2Nal][dR][dK]-NH2),MIC against Staphylococcus aureus (NRS 384),[1],1 µg/mL
same,MIC Bacillus subtilis ATCC 6633,[2],2 µg/mL
same,MIC Candida albicans ATCC MYA-2876,[3],8 µg/mL
same,MIC Candida glabrata ATCC 15126,[4],16 µg/mL
same,MIC Candida krusei ATCC 6258,Candida krusei ATCC 6258,16 µg/mL
same,MIC Candida tropicalis ATCC 750,[5],8 µg/mL
same,MIC Candida utilis ATCC 9950,Candida utilis ATCC 9950,8 µg/mL
same,MIC Corynebacterium ATCC 7715,[6],4 µg/mL
same,MIC Enterococcus ATCC 29212,Enterococcus ATCC 29212,4 µg/mL
same,MIC Escherichia coli ATCC 25922,[7],1 µg/mL
same,MIC Klebsiella pneumoniae ATCC 700603,[8],2 µg/mL
same,MIC Pseudomonas aeruginosa ATCC 27853,[9],4 µg/mL
same,MIC Salmonella typhimurium ATCC 14028,[10],1 µg/mL
same,MIC Serratia marcescens ATCC 29021,[11],4 µg/mL
same,MIC Staphylococcus aureus ATCC 25923,[12],2 µg/mL
same,MIC Trichophyton ATCC MYA-4438,[13],16 µg/mL
same,MIC Shigella flexneri ATCC 12022,[14],2 µg/mL
same,MIC MRSA,[15],2 µg/mL
same,MIC CREC,[16],4 µg/mL
same,MIC CRKP,[17],4 µg/mL
same,MIC CRPA,[18],8 µg/mL
same,MIC VRE,[19],8 µg/mL
same,Trypsin MIC,[20],1 µg/mL
same,Number of mice that died on each day after infection: day 1,[21],1 Mouse
same,Number of mice that died on each day after infection: day 2,[21],1 Mouse
same,Number of mice that died on each day after infection: day 3,[21],0 Mouse
same,Number of mice that died on each day after infection: day 4,[21],2 Mouse
same,Number of mice that died on each day after infection: day 5,[21],1 Mouse
same,Average survival times (Days),[21],8.6** Days
same,"remaining at 12 h, 0.91 mg/mL",[22],98.7%
CC(=O)N[C@H](CCCNC(=N)N)C(=O)N[C@H](CCCCN)C(=O)N[C@H](CC(C)C)C(=O)N[C@H](CC(C)C)C(=O)N[C@H](Cc1ccc2ccccc2c1)C(=O)N[C@H](CCCNC(=N)N)C(=O)N[C@H](CC(C)C)C(=O)N[C@H](CCCCN)C(=O)N[C@H](Cc1ccccc1)C(=O)N[C@H](CCCNC(=N)N)C(=O)N[C@H](CCCCN)C(N)=O [LV-4] (Ac-[dR][dK][dL][dL][d2Nal][dR][dL][dK][dF][dR][dK]-NH2),MIC against Staphylococcus aureus (NRS 384),[1],1 µg/mL
same,MIC Bacillus subtilis ATCC 6633,[2],4 µg/mL
same,MIC Candida albicans ATCC MYA-2876,[3],8 µg/mL
same,MIC Candida glabrata ATCC 15126,[4],8 µg/mL
same,MIC Candida krusei ATCC 6258,Candida krusei ATCC 6258,16 µg/mL
same,MIC Candida tropicalis ATCC 750,[5],16 µg/mL
same,MIC Candida utilis ATCC 9950,Candida utilis ATCC 9950,8 µg/mL
same,MIC Corynebacterium ATCC 7715,[6],2 µg/mL
same,MIC Enterococcus ATCC 29212,Enterococcus ATCC 29212,2 µg/mL
same,MIC Escherichia coli ATCC 25922,[7],2 µg/mL
same,MIC Klebsiella pneumoniae ATCC 700603,[8],4 µg/mL
same,MIC Pseudomonas aeruginosa ATCC 27853,[9],2 µg/mL
same,MIC Salmonella typhimurium ATCC 14028,[10],2 µg/mL
same,MIC Serratia marcescens ATCC 29021,[11],2 µg/mL
same,MIC Staphylococcus aureus ATCC 25923,[12],1 µg/mL
same,MIC Trichophyton ATCC MYA-4438,[13],8 µg/mL
same,MIC Shigella flexneri ATCC 12022,[14],4 µg/mL
same,MIC MRSA,[15],8 µg/mL
same,MIC CREC,[16],8 µg/mL
same,MIC CRKP,[17],2 µg/mL
same,MIC CRPA,[18],4 µg/mL
same,MIC VRE,[19],2 µg/mL
same,Trypsin MIC,[20],1 µg/mL
same,Number of mice that died on each day after infection: day 1,[21],0 Mouse
same,Number of mice that died on each day after infection: day 2,[21],1 Mouse
same,Number of mice that died on each day after infection: day 3,[21],0 Mouse
same,Number of mice that died on each day after infection: day 4,[21],2 Mouse
same,Number of mice that died on each day after infection: day 5,[21],1 Mouse
same,Average survival times (Days),[21],9.9**** Days
same,"remaining at 12 h, 0.91 mg/mL",[22],98.7%
CC(=O)N[C@H](CCCNC(=N)N)C(=O)N[C@H](CCCCN)C(=O)N[C@H](CC(C)C)C(=O)N[C@H](CC(C)C)C(=O)N[C@H](Cc1ccc(F)cc1)C(=O)N[C@H](CCCCN)C(=O)N[C@H](CC(C)C)C(=O)N[C@H](CCCCN)C(=O)N[C@H](Cc1ccc(F)cc1)C(=O)N[C@H](CCCCN)C(=O)N[C@H](CCCNC(=N)N)C(N)=O [LV-5] (Ac-[dR][dK][dL][dL][dPhe(4-F)][dK][dL][dK][dPhe(4-F)][dK][dR]-NH2),MIC against Staphylococcus aureus (NRS 384),[1],1 µg/mL
same,MIC Bacillus subtilis ATCC 6633,[2],4 µg/mL
same,MIC Candida albicans ATCC MYA-2876,[3],8 µg/mL
same,MIC Candida glabrata ATCC 15126,[4],16 µg/mL
same,MIC Candida krusei ATCC 6258,Candida krusei ATCC 6258,4 µg/mL
same,MIC Candida tropicalis ATCC 750,[5],8 µg/mL
same,MIC Candida utilis ATCC 9950,Candida utilis ATCC 9950,16 µg/mL
same,MIC Corynebacterium ATCC 7715,[6],4 µg/mL
same,MIC Enterococcus ATCC 29212,Enterococcus ATCC 29212,2 µg/mL
same,MIC Escherichia coli ATCC 25922,[7],4 µg/mL
same,MIC Klebsiella pneumoniae ATCC 700603,[8],2 µg/mL
same,MIC Pseudomonas aeruginosa ATCC 27853,[9],2 µg/mL
same,MIC Salmonella typhimurium ATCC 14028,[10],4 µg/mL
same,MIC Serratia marcescens ATCC 29021,[11],2 µg/mL
same,MIC Staphylococcus aureus ATCC 25923,[12],1 µg/mL
same,MIC Trichophyton ATCC MYA-4438,[13],4 µg/mL
same,MIC Shigella flexneri ATCC 12022,[14],2 µg/mL
same,MIC MRSA,[15],4 µg/mL
same,MIC CREC,[16],8 µg/mL
same,MIC CRKP,[17],4 µg/mL
same,MIC CRPA,[18],4 µg/mL
same,MIC VRE,[19],8 µg/mL
same,Trypsin MIC,[20],1 µg/mL
same,Number of mice that died on each day after infection: day 1,[21],1 Mouse
same,Number of mice that died on each day after infection: day 2,[21],1 Mouse
same,Number of mice that died on each day after infection: day 3,[21],1 Mouse
same,Number of mice that died on each day after infection: day 4,[21],0 Mouse
same,Number of mice that died on each day after infection: day 5,[21],1 Mouse
same,Average survival times (Days),[21],9.5*** Days
same,"remaining at 12 h, 0.91 mg/mL",[22],98.2%
